For orientation: % inhibition means the drop in the measured response relative to a control, in per cent. The low end stands for a response near the control, the high end for a response far below the control.

This experiment has as its target T1, P2X7 receptor (Homo sapiens, UniProt Q99572).
T1 construct: expressed in transfected cells; host or cells: HEK.293 cells, transient transfection with Lipofectamine LTX
T1 sequence (Q99572 1-595): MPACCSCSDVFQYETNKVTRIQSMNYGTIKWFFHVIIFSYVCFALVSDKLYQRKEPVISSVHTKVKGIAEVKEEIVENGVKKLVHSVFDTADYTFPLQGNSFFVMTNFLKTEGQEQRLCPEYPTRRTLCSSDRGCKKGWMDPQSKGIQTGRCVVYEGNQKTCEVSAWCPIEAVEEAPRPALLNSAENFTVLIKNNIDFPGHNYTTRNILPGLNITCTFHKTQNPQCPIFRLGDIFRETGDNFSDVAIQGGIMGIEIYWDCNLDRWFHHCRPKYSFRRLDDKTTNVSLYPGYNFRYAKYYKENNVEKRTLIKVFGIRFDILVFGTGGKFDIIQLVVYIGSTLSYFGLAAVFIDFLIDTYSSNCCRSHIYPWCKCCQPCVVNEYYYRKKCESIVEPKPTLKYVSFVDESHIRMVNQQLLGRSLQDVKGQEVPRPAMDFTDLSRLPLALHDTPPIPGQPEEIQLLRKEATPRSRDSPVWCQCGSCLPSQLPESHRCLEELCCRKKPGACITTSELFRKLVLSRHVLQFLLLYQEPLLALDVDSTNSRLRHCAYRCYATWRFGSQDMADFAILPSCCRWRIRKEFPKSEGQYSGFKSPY
Kind of experiment: Pore-forming (Yo Pro-1 dye uptake) assay in P2X7 transfected HEK.293 cells, Bz-ATP agonist. The class given is cell-based. Particulars: Bz-ATP 30 μM, Yo Pro-1 1 μM, triplicate. The source says:
A non-radioactive analogue of the Imaging Agent illustrated in Table I was screened in a P2X7 receptor functional assay. This assay is described in Example 3 and is based upon the ability of the P2X7 receptor to form a non-selective pore in P2X7 transfected HEK.293 cells upon activation with an agonist, thereby allowing dye to permeate the cells. The non selective P2X channel antagonist used as a reference inhibitor for the evaluation of the non-radioactive compound of the invention was pyridoxal-phosphate-6-azophenyl-2′,4′-disulfonate (PPADS), and the results of the assay are provided in Table I above.
The assay method used was based on the ability of the DNA binding dye, Yo Pro-1 (quinolinium, 4[3-methyl-2(3H)-benzoxazolylidene)methyl]-1-[3-(trimethyl-ammonio)propyl]-dioxide) to enter through the dilated or “large pore form” of the P2X7 receptor and to bind to intracellular DNA/RNA whereupon it increases fluorescence intensity. Yo Pro-1 was therefore used to quantify inhibition of P2X7 function. This assay was based on the methods published by Michel et al., (B.J. Pharmacol 1998; 125: 1194-1201).
Initially, HEK.293 cells were transiently transfected using LipofectamineTMLTX (Invitrogen) for 72 hrs with P2X7 cDNA. 48 hours prior to use the cells were seeded into poly-D-lysine coated 96-well black-walled, clear bottomed plates, at a density of 30,000 cells/well. Stock solutions of test compound were prepared at a concentration of 40 mM in 100% DMSO.
Following the 48 hour incubation the culture medium was removed from the transfected cells, the cells were washed once and placed in pre-warmed sucrose assay buffer (Sucrose: 280 mM, KCL 5 mM, CaCl2: 0.5 mM, glucose: 10 mM, HEPES: 10 mM, N-methyl-D-glucamine: 10 mM; pH7.4). […] The fluorescence was then read at 485 nm excitation and 530 nm emission.
The non-selective P2X channel antagonist pyrdoxalphosphate-6-azophenyl-2′4′-disulphonic acid (PPADS) was used as a reference inhibitor in the assay. […] For each compound data set, a percentage inhibition value was calculated based on the three assay points generated.

Regarding `Oc1ccccc1CNc1ncnn1-c1cccc(Cl)c1Cl` [imaging agent 1], the “% inhibition” value was determined as 77.0% (test compound at 10 μM) and 68.0% (test compound at 100 μM (so in the source)).

On to `Cc1nc(N=Nc2ccc(S(=O)(=O)O)cc2S(=O)(=O)O)c(COP(=O)(O)O)c(C=O)c1O` [PPADS, pyridoxal-phosphate-6-azophenyl-2′,4′-disulfonate, reference compound], for which the “% inhibition” value (test compound at 10 μM) was 70%.

The record behind these values is patent US20120034165A1, “IMAGING THE CENTRAL NERVOUS SYSTEM WITH PURINERGIC P2X7 RECEPTOR BINDING AGENTS” (priority 2009, published 2012).
